Reference: US4109011A, “Insecticide carbamates of N-(polychloroallyl)-amino-phenols” (priority 1975, dated 1978)
Where two headings read alike, the source gives them in different places.

Assays:
Tetranychus Urticae = experiment: Biological activity on Tetranychus urticae eggs, bean leaf discs; format: in vivo
Description: Biological Activity on Tetranychus Urticae (Acari)
Small discs of bean leaves were infested with acarus eggs and successively treated by spraying with an aqueous dispersion of a compound of this invention and Aminocarb as a comparison, at concentrations of 0.1 and 0.01%. The mortality percentage of the control, untreated discs, was zero.
(§1) To show the variation in activity from one compound to another, depending on the species used, the activities of compounds according to this invention were investigated at different concentrations, expressed as percent of active principle, on various infesting species. The mortality percentage was computed in the same way as in the preceding examples.

Meloidogyne Incognita = experiment: Biological activity on Meloidogyne incognita (nematocide activity, galls on tomato seedlings); format: in vivo; conditions: vs control
Description: Biological Activity on Meloidogyne Incognita (Nematoda)
A 1:1 mixture of field earth and sand infested by new-born larvae and eggs of the nematode was treated by uniformly mixing with a hydroacetone dispersion (20% by vol. of acetone) at a concentration of 0.1% and of 0.02% of the compounds under test so as to get soil samples containing 100 ppm and 20 ppm, respectively, of active principle. The soil was introduced into plastic pots and after 5 days, 5 tomato seedlings about 15 cm high were transplanted into each of them. Fourteen days after transplantation, the roots of the seedlings extracted from the soil were examined in order to determine the degree of infestation by counting the galls which had formed.
The nematocide activity is expressed in Table 13 as the percentage of infestation reduction with respect to the control (seedlings transplanted into the same soil treated with a dispersion free from active principle).

[1] = test system: Leptinotarsa Decimlineata; experiment: Biological activity on Leptinotarsa decemlineata larvae, sprayed potato seedlings; format: in vivo
Description: Biological Activity on Leptinotarsa Decimlineata Coleoptera
Potato seedlings cultivated in pots were infested with 4-day old larvae and sprayed with an aqueous dispersion of the compounds according to this invention and Aminocarb as a comparison at doses of […]; respectively. The mortality percentage of the control, untreated seedlings, was zero.
as §1

Macrosiphum Euphorbiae = experiment: Biological activity on Macrosiphum euphorbiae (aphides), potato seedlings sprayed with aqueous dispersion; format: in vivo
Description: Biological Activity on Macrosiphum Euphorbiae (Aphides)
Potato seedlings, cultivated in pots, were infested with adult aphide females and, after a few hours, were sprayed with an aqueous dispersion of the compounds listed in Table 6. The mortality percentage was determined 24 hours after the treatment (on control non-treated seedlings, the mortality percentage was 0).
as §1

[2] = test system: Leptinotarsa Decimlineata; experiment: Biological activity on Leptinotarsa decemlineata larvae, sprayed potato seedlings; format: in vivo; conditions: read-out: Percent of Mortality
Culex Pipiens [3] = experiment: Biological activity on Culex pipiens (mosquito larvae in aqueous dispersion); format: in vivo
Description: Biological Activity on Culex Pipiens (Diptera)
Mosquito larvae of the third and fourth ages were introduced into glass pots containing an aqueous dispersion of the compounds shown at 2 ppm and 0.2 ppm.
as §1

Musca Domestica = experiment: Biological activity on Musca domestica, topical application to adults; format: in vivo; conditions: read-out: Percent of Mortality
Description: Biological Activity on Musca Domestica (Diptera)
Four day old adults were treated by topical application through a microsyringe with 1 mm^3 of an acetonic solution of the compounds shown in such concentrations that they received doses of 5γ/insect; 2γ/insect; 0.5γ/insect of active principle. The mortality percentage 24 hours after the treatment is reported in Table 8 (mortality of insects treated with 1 mm^3 of acetone = 0).

[4] = Acute toxicity on white rats, administered orally; conditions: rat, in vivo, po
parasites = conditions: vs N-dimethyl substituted homolog; Miskus et al 1968; cited from earlier work
Tetran Urt. adults = experiment: Activity on Tetranychus urticae adults (Table 14); format: in vivo; conditions: 1% a.p., read-out: % mort. Tetran. Urt. adults
Description: as §1

Pieris Brassicae = experiment: Biological activity on Pieris brassicae larvae, sprayed cut cauliflower leaves; format: in vivo
Description: Biological Activity on Pieris Brassicae (Lepidoptera)
Cut leaves of cauliflower were sprayed with an aqueous dispersion of compound according to this invention at a 0.1% concentration. After drying, they were infested with 5-day old larvae. The mortality percentage of the control, untreated leaves, was zero.
as §1

Culex Pipiens [5] = experiment: Biological activity on Culex pipiens (mosquito larvae in aqueous dispersion); format: in vivo; conditions: read-out: % mort. Culex Pipiens
[6] = read-out: % mort. Leptinot. Decemlin.
[7] = read-out: % mort. Macrosiphum Euphorbiae
[8] = read-out: % mort. Culex Pipiens
[9] = 24 h, read-out: Percent of Mortality

CNC(=O)Oc1ccc(N(C)C)c(C)c1 [Aminocarb, reference compound]
mortality at 0.01 % (Tetranychus Urticae; foliar, 0.01%, eggs, read-out: Percent of Mortality): 0% | mortality at 0.1 % (Tetranychus Urticae; foliar, 0.1%, eggs, read-out: Percent of Mortality): 40% | Reduction of Infestation (Meloidogyne Incognita; 20 ppm in soil): 0% | Reduction of Infestation (Meloidogyne Incognita; 100 ppm in soil): 95% | mortality at 0.1 % ([1]; 0.1% concentr., larvae, read-out: Percent of Mortality): 100% | mortality at 0.01 % (Macrosiphum Euphorbiae; 0.01 percent dispersion, 24 hours, read-out: Mortality Percent): 46% | mortality at 0.01 % ([2]; 0.01% concentr., larvae): 45% | mortality at 0.2 ppm (Culex Pipiens [3]; 0.2 ppm, 24 hours, read-out: Percent of Mortality): 0% | mortality at 2 ppm (Culex Pipiens [3]; 2 ppm, 24 hours, read-out: Percent of Mortality): 25% | mortality at 0.5 µg/insect (Musca Domestica; 0.5 γ per insect, 24 hours): 0% | mortality at 2 µg/insect (Musca Domestica; 2 γ per insect, 24 hours): 50% | mortality at 5 µg/insect (Musca Domestica; 5 γ per insect, 24 hours): 85% | LD50 [4]: 30 mg/kg

CNC(=O)Oc1cc(C)c(NC)c(C)c1
relative insecticidal activity (parasites): only a bit less active than the N-dimethyl substituted homolog

CNC(=O)Oc1cccc(NCC=C(Cl)Cl)c1 [M 7360]
mortality at 1 % (Tetranychus Urticae; topical, read-out: % mort. Tetran. Urt. eggs): 6% | mortality at 1 % (Tetran Urt. adults): 23% | mortality at 0.01 % [1, 6]: 0% | mortality at 0.1 % [1, 6]: 100% | mortality at 1 % [1, 6]: 100% | mortality at 0.01 % (Macrosiphum Euphorbiae; [7]): 42% | mortality at 0.1 % (Macrosiphum Euphorbiae; [7]): 95% | mortality at 1 % (Macrosiphum Euphorbiae; [7]): 100% | mortality at 1 % (Pieris Brassicae; Table 14, 1% a.p., read-out: % mort. Pieris Brassicae): 45% | mortality at 0.2 ppm (Culex Pipiens [3]; [8]): 37% | mortality at 2 ppm (Culex Pipiens [3]; [8]): 100% | mortality at 0.02 ppm (Culex Pipiens [5]): 0%

CNC(=O)Oc1ccc(C)c(NCC=C(Cl)Cl)c1 [M 6430, N-methylcarbamate of 4-methyl-3-(3,3-dichloroallylamino)-phenol]
Reduction of Infestation (Meloidogyne Incognita; 20 ppm in soil): 88% | Reduction of Infestation (Meloidogyne Incognita; 100 ppm in soil): 100% | mortality at 0.1 % ([1]; read-out: Percent of Mortality): 100% | mortality at 0.01 % (Macrosiphum Euphorbiae; 24 h, read-out: Mortality Percent): 84% | mortality at 0.1 % (Pieris Brassicae; 0.1 percent, larvae, read-out: Percent of Mortality): 100% | mortality at 0.01 % [2]: 100% | mortality at 0.2 ppm (Culex Pipiens [3]; [9]): 80% | mortality at 2 ppm (Culex Pipiens [3]; [9]): 100% | mortality at 0.5 µg/insect (Musca Domestica; 24 h): 100% | mortality at 2 µg/insect (Musca Domestica; 24 h): 100% | mortality at 5 µg/insect (Musca Domestica; 24 h): 100% | LD50 [4]: 100 mg/kg
